# Experimental data: PubChem BioAssay (NCI)
#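 Where inhibition never reached the appropriate level, the endpoint shown equals the highest concentration tested. Otherwise, values were interpolated linearly from a five-concentration, 48-hour dose response in 96-well plates. GI50: concentration for 50% inhibition of growth. The concentration for full growth arrest is given as TGI.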
# Legend:
# Experiment in all cases: DTP human tumour cell line panel, 48 h
# A549 NSCLC = tested on: A549 NSCLC
# HOP-92 NSCLC = tested on: HOP-92 NSCLC
# HT29 colon = tested on: HT29 colon
# M14 melanoma = tested on: M14 melanoma
# MALME-3M melanoma = tested on: MALME-3M melanoma
# OVCAR-5 ovarian = tested on: OVCAR-5 ovarian
# OVCAR-8 ovarian = tested on: OVCAR-8 ovarian
# SN12C renal = tested on: SN12C renal
# OVCAR-4 ovarian = tested on: OVCAR-4 ovarian
SMILES,TGI (A549 NSCLC) [µM],TGI (HOP-92 NSCLC) [µM],TGI (HT29 colon) [µM],TGI (M14 melanoma) [µM],TGI (MALME-3M melanoma) [µM],TGI (OVCAR-5 ovarian) [µM],TGI (OVCAR-8 ovarian) [µM],TGI (SN12C renal) [µM],TGI (OVCAR-4 ovarian) [µM],GI50 (A549 NSCLC) [µM],GI50 (HOP-92 NSCLC) [µM],GI50 (HT29 colon) [µM],GI50 (M14 melanoma) [µM],GI50 (MALME-3M melanoma) [µM],GI50 (OVCAR-4 ovarian) [µM],GI50 (OVCAR-5 ovarian) [µM],GI50 (OVCAR-8 ovarian) [µM],GI50 (SN12C renal) [µM]
[N-]=[N+]=NC(c1cn(C2CC(O)C(CO)O2)c(=O)[nH]c1=O)C(Br)I (configuration not stated),> 100,> 100,> 100,> 100,> 100,> 100,> 100,> 100,–,–,–,–,–,–,–,–,–,–
Cc1cccc(-c2nc3c(C(=O)NCCN(C)C)cccc3[nH]2)c1,7.7,3.46,3.48,2.98,–,4.14,7.02,3.2,3.64,–,–,–,–,–,–,–,–,–
CC(=O)CCCCCCCCCCCC[C@@H]1CC[C@H](C)[C@H](O)N1,> 100,> 100,> 100,> 100,> 100,> 100,> 100,–,–,–,–,–,–,–,–,–,–,–
CCCCCCCCCCCCCCCCCC(=O)OCC(CN(C)CCN(C)C)OC(=O)CCCCCCCCCCCCCCCCC (configuration not stated),> 100,> 100,> 100,> 100,> 100,> 100,> 100,> 100,> 100,–,–,–,–,–,–,–,–,–
Cc1cccc(C(C)(C)C)c1NC(=O)C(=O)C(C(=O)/C=C\c1ccccc1)C1OC(=O)c2ccccc21 (configuration not stated),> 100,> 100,> 100,> 100,> 100,> 100,> 100,> 100,> 100,–,–,–,–,–,–,–,–,–
O=C1C(Cl)C(c2cccc(O)c2)N1n1cnc2ccccc2c1=O (configuration not stated),> 100,–,> 100,> 100,> 100,> 100,> 100,> 100,> 100,–,–,–,–,–,–,–,–,–
CSc1nc(NC2OCC(OC(C)=O)C(OC(C)=O)C2OC(C)=O)c2c(OC(C)=O)c(C)c(=O)oc2n1 (configuration not stated),> 100,> 100,> 100,> 100,> 100,> 100,> 100,> 100,> 100,–,–,–,–,–,–,–,–,–
O=C1C(Cl)=C(Cl)C(=O)N1C1C2CC3CC(C2)CC1C3 (configuration not stated),> 100,> 100,> 100,> 100,> 100,> 100,> 100,> 100,> 100,–,–,–,–,–,–,–,–,–
CCCCCCCCCCC/C(=N/O)c1ccc(O)c2ncccc12,35.8,5.47,17.2,4.8,12.6,6.66,16.2,–,19.2,–,–,–,–,–,–,–,–,–
Clc1ccc(Cl)c2[s+]snc12,> 100,> 100,68.3,> 100,99.5,> 100,> 100,> 100,> 100,–,–,–,–,–,–,–,–,–
CC[C@]1(O)CC2CN(CCc3c([nH]c4ccccc34)[C@@](C(=O)OC)(c3cc4c(cc3OC)N(C)[C@H]3[C@@](O)(C(=O)OC)[C@H](OC(C)=O)[C@]5(CC)C=CCN6CC[C@]43[C@@H]65)C2)C1 (some centres not stated),> 50,0.119,5.18,0.0417,11.8,> 47.2,> 34.6,> 37.3,> 50,< 0.005,< 0.005,< 0.005,< 0.005,< 0.005,0.0303,0.01,< 0.005,< 0.005
